Test results as given in publication PMC8308524, “Interaction between DNA, Albumin and Apo-Transferrin and Iridium(III) Complexes with Phosphines Derived from Fluoroquinolones as a Potent Anticancer Drug” (Pharmaceuticals, 2021).

What was measured:
[1] = biological target: T1, human serum albumin (HSA) (Homo sapiens, UniProt P02768); assay: Fluorescence quenching of human serum albumin; type: binding; conditions: 50 mM phosphate buffer pH 7.4, excitation 295 nm, Stern–Volmer
T1 construct: purchased Sigma–Aldrich (Hamburg, Germany)
Excerpt: Interest in studying the interaction of metal ions and their compounds with blood plasma proteins, especially with serum albumin (HSA), the most abundant protein in plasma involved in the transport of drugs through the bloodstream, is increasing. This molecule has two main binding sites: site I is located in subdomain IIA and site II is located in subdomain IIIA. […] Changes in the appearance of the Trp-214 residue emission band in HSA, in the presence of the tested compounds, may indicate changes in the protein’s conformation, the association of its subunits or denaturation, or the binding of the compound to protein [53, 56].
(§1) In order to confirm the quenching mechanism, the fluorescence quenching was analyzed according to Stern–Volmer in Equation (2):(2) I0/I=1+KsvC where I0 and I are the fluorescence intensities in the absence and presence of the quencher, respectively, KSV is the Stern–Volmer quenching constant, and [C] is the concentration of the quencher, respectively.
Human serum albumin (HSA) was dissolved in 50 mM phosphate buffer saline (PBS) (pH = 7.4), C (HSA) ≈ 5 × 10^− 5 M. The solution of the HSA was titrated at different molar ratios (0.5, 1, 2, 3, 4, 5, 6, 7, 8, 9 and 10) by IrPCp, IrPNr, IrPSf, IrPLm and phosphine ligands (dissolved in DMSO) and incubated for 1 h with any portion from each of the investigated compounds. The final volume of DMSO was 2% in each sample. Afterward, substances were incubated with HSA solution for 1h at room temperature. The excitation wavelength was equal to 295 nm.

pBR322 plasmid DNA = assay: DNA strand break analysis by agarose gel electrophoresis; type: biochemical; conditions: pBR322, 10 to 500 μM, 1 h, 4 h, 24 h
Excerpt: Since intercalation usually results in relatively large changes in the double helix structure, we assumed that all iridium(III) complexes cause severe DNA cleavage. The binding ability of iridium(III) complexes with another DNA model—pBR322 plasmid DNA, was studied by gel electrophoresis as a target. The degree of plasmid degradation, which is naturally present in a superhelical form (form I), to determine the ability of the compounds to induce single- and/or double-strand damage of the DNA was checked. This process can lead to the formation of the relaxed/nicked (form II) and linear (form III) forms. The degree of DNA degradation was determined in a wide range of the tested compounds’ concentrations (from 10 to 500 μM) at three different incubation times: 1 h, 4 h, and 24 h (Figure 4E1–E3).
It was proven by cyclic voltamperometry, and fluorescence spectroscopy that the studied herein Ir(III) compounds can generate high levels of ROS, therefore the effect of additional H2O2 on the overall ROS production and the associated DNA damages caused by this radical pathway. Furthermore, to confirm the generation of particular types of ROS involved in plasmid degradation, the experiment using DMSO (effective scavenger of ^•OH), SOD (effective scavenger of O2^•−), [50] and NaN3 (effective scavenger of ^1O2) was performed. In order to exclude the effect of the hydrogen peroxide influence on plasmid DNA degradation, we performed an additional gel electrophoresis for H2O2 in different concentrations (Supplementary Materials, Figure S8).
The ability of IrPCp, IrPNr, IrPSf, IrPLm, and phosphine ligands to induce single- or double-strand breaks in plasmid DNA was tested with the pBR322 plasmid (C = 0.5 mg/mL). All compounds were dissolved in DMF; the concentration was kept constant (10% by volume) in the final solution with/without hydrogen peroxide (H2O2, C = 50 μM), superoxide dismutase (SOD, C = 0.62 μM), dimethyl sulfoxide (DMSO, C = 1.4 mM), or sodium azide (NaN3, C = 40 mM). The reaction was also monitored after the addition of various groove binders: methyl green (MG, C = 10 mg/mL), and 4′,6-diamidino-2-phenylindole (DAPI, C = 5 mg/mL). After incubation for 1 h at 37°C, reaction mixtures (20 μL) were mixed with 3 μL of loading buffer (bromophenol blue in 30% glycerol) and loaded on 1% agarose gels, containing EB, in TBE buffer (90 Mm Tris–borate, […], pH = 8.0). Gel electrophoresis was performed at a constant voltage of 100V (4 Vcm-1) for 60 min. The gel was photographed and processed with a Digital Imaging System (Syngen Biotech, Wroclaw, Poland).

apo-transferrin (apo-Tf) = biological target: T2, apo-transferrin (apo-Tf) (Homo sapiens, UniProt P02787); assay: Fluorescence quenching of apo-transferrin; type: binding; conditions: apo-Tf 3.6 × 10^−6 M, 50 mM phosphate buffer pH 7.4, excitation 295 nm, Stern–Volmer
T2 construct: purchased Sigma–Aldrich (Hamburg, Germany)
Protocol: A solution of apo-Tf was titrated with increasing concentrations of all the tested compounds, and the fluorescence intensity of apo-Tf was monitored spectrophotometrically (Figure 9A; Supplementary Materials, Figures S6 and S7). At the same time, Ksv values were determined from Stern–Volmer plots (Figure 9B, Table 4).
as §1
Apo-transferrin (apo-Tf) solution was prepared by dissolving the solid protein in 50 mM of phosphate-buffered saline (PBS) (pH = 7.4), C (apo-Tf) ≈ 3,6 × 10^− 6 M. The solution of the Tf was titrated in different molar ratios (0.5, 1, 2, 3, 4, 5, 6, 7, 8, 9, and 10) by IrPCp, IrPNr, IrPSf, IrPLm with corresponding phosphines (dissolved in DMSO) and incubated for 1h with any portion from each of the investigated compounds. The final volume of DMSO was 2% in each sample. The excitation wavelength was equal to 295 nm. The spectra of circular dichroism were recorded using a spectropolarimeter JASCO J-715 (CD and MCD).

CT DNA = assay: Competitive fluorescence quenching of CT DNA-DAPI (minor groove binding); parameters: species or system calf; unit not given here; conditions: extended Stern–Volmer plot
Excerpt: It is well known that the cytotoxic activity of various drugs (e.g., fluoroquinolones) depends on interaction with DNA [1]. […] Several well-known DNA binding dyes with well-established binding modes were used: ethidium bromide (EB; intercalation), 4′,6-diamidino-2-phenylindole (DAPI; binding to a minor groove), and methyl green (MG; binding to a major groove). The compounds that can bind to DNA more strongly than the above-mentioned binding dyes (EB, DAPI, or MG) reduce the DNA-binding dye emission due to the replacement of dye. The emission spectra of the CT DNA-binding dye complex were measured at different concentrations of the investigated compounds, (Figure 2; Supplementary Materials, Figures S1–S4).
Furthermore, we conducted a similar competitive experiment using DAPI Figure 3, and Figures S2 and S3 in Supplementary Materials. […] The displacement of bound DAPI from its binding site on CT DNA is much stronger than when EB is used. In order to confirm the quenching mechanism, the fluorescence quenching was analyzed according to Stern–Volmer equations (Figure 3A) and KDSV (dynamic quenching constant) values, which are presented in Figure 3B. Based on Stern–Volmer plots (Figure 3A), the strength of CT DNA-DAPI fluorescence quenching formed the following order: IrPSf > IrPCp > IrPNr > IrPLm.
The stock solution was prepared by dissolving of the calf thymus (CT DNA) in 50 mM phosphate buffer saline (PBS) (pH = 7.4). The CT DNA concentration (C = 5 × 10^−5 M) was determined by a UV spectrophotometer using the molar absorption coefficient […] at 258 nm. The stock solution was stored at 4 °C and used for > 6 days. The luminescent complexes of CT DNA with EB (ethidium bromide), DAPI (4′,6-diamidyno−2-fenyloindol), and MG (methyl green) were prepared by mixing the substrates in the equimolar ratio (CCT DNA-fluorescent dye = 5 × 10^−5 M; 50 mM of the phosphate buffer at pH = 7.4). The solution of the CT DNA fluorescent dye system was titrated in different molar ratios (0.5, 1, 2, 3, 4, 5, 6, 7, 8, 9, and 10) with the tested substances (dissolved in DMSO) and incubated for 1 h for each portion of the investigated compounds. The final concentration of DMSO was 2% in each sample. Photoluminescence measurements were recorded at 298 K using a Cary Eclipse Fluorescence Spectrophotometer. The excitation wavelength was 510 nm for the CT DNA-EB complex, 358 nm for the CT DNA-DAPI complex, and 633 nm for the CT DNA-MG complex. The Inner Filter Effect was considered and the corrected intensity of the emission band was calculated using Equation (1), where: Abs—absorbance at analyzed emission wavelength; If—uncorrected emission intensity. (1) Icor=If 2.303 Abs/ 1−10^Abs
as §1
In same case, it was clearly observed that both static and dynamic quenching occur simultaneously where a nonlinear curve is observed. In such cases, extended Stern–Volmer plots can be used to describe the new situation with the following Equation (3). (3) 1−(I/I0)/C=KDSV(I/I0) +V where I0 and I are the fluorescence intensities in the absence and presence of the quencher, respectively; KDSV is the dynamic quenching constant; [C] is the concentration of the quencher, and V is the volume of the sphere of action. We drew the plots of ([1 − (I/I0)]/[C]) versus I/I0. KDSV is the slope of the plot and the static quenching constant V is calculated from the intercept of the plot.

T2 sequence (P02787 20-698): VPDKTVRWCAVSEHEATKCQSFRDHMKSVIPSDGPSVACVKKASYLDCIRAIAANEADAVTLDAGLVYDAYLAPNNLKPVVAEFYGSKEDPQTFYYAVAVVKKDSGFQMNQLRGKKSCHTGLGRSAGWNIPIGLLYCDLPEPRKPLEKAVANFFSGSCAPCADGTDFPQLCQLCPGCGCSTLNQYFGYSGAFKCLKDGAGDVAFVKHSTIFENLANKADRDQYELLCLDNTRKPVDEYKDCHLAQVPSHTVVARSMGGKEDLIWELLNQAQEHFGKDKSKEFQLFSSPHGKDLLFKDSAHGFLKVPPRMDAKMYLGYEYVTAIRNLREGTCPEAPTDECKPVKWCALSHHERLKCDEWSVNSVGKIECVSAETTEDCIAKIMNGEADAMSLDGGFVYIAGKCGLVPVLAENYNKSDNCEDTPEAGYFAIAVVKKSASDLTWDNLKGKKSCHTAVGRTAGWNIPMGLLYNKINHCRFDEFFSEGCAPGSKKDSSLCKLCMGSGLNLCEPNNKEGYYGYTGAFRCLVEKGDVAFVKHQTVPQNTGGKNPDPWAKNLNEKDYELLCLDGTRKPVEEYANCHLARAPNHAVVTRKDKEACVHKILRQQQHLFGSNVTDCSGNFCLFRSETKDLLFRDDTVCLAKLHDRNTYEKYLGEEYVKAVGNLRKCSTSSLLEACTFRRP
T1 sequence (P02768 25-609): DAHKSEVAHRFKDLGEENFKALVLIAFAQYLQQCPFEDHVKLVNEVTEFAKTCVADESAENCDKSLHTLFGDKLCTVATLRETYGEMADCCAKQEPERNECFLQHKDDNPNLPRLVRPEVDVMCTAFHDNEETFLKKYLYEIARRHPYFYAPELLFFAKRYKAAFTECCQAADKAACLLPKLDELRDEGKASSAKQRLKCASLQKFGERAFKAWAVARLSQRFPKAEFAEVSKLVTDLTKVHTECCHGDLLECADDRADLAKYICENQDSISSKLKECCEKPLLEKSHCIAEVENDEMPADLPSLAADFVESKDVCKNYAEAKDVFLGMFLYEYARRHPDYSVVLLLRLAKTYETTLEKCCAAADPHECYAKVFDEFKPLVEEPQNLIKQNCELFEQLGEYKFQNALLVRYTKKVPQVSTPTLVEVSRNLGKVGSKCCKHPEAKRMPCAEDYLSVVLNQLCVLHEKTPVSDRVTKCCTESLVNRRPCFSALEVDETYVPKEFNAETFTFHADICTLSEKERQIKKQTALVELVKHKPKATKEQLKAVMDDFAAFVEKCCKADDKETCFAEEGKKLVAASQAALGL

Compound | Ksv (HSA fluorescence quenching) [1] [M⁻¹] | double-strand plasmid damage (formation of linear form III) (pBR322 plasmid DNA) | Ksv (apo-Tf fluorescence quenching) (apo-transferrin (apo-Tf)) [M⁻¹] | KDSV (dynamic quenching constant) (CT DNA) | V (static quenching constant, volume of the sphere of action) (CT DNA)
CCn1cc(C(=O)O)c(=O)c2cc(F)c(N3CCN(C[P+](c4ccccc4)(c4ccccc4)[Ir]([Cl])[Cl])CC3)cc21.Cc1c(C)c(C)[c-](C)c1C [IrPNr, Ir(η^5-Cp*)Cl2PNr] | 698000 | not presumably capable of double-strand plasmid damage | 20200 | 1.72×10^3 | 1.13×10^3
Cc1c(C)c(C)[c-](C)c1C.O=C(O)c1cn(C2CC2)c2cc(N3CCN(C[P+](c4ccccc4)(c4ccccc4)[Ir]([Cl])[Cl])CC3)c(F)cc2c1=O [IrPCp, Ir(η^5-Cp*)Cl2PCp] | 2.08e+06 | not presumably capable of double-strand plasmid damage | 21800 | 3.21×10^3 | 2.21×10^3
CCn1cc(C(=O)O)c(=O)c2cc(F)c(N3CCN(CP(c4ccccc4)c4ccccc4)CC3)cc21 [PNr] | – | – | 45.6 | – | –
CCn1cc(C(=O)O)c(=O)c2cc(F)c(N3CCN(C[P+](c4ccccc4)(c4ccccc4)[Ir]([Cl])[Cl])C(C)C3)c(F)c21.Cc1c(C)c(C)[c-](C)c1C (racemic) [IrPLm, Ir(η^5-Cp*)Cl2PLm] | 5.06e+06 | not presumably capable of double-strand plasmid damage | 19900 | 2.19×10^3 | 1.45×10^3
CC1CN(c2c(F)c(N)c3c(=O)c(C(=O)O)cn(C4CC4)c3c2F)CC(C)N1CP(c1ccccc1)c1ccccc1 (stereo not drawn) [PSf] | – | – | 11000 | – | –
CC1CN(c2c(F)c(N)c3c(=O)c(C(=O)O)cn(C4CC4)c3c2F)CC(C)N1C[P+](c1ccccc1)(c1ccccc1)[Ir]([Cl])[Cl].Cc1c(C)c(C)[c-](C)c1C (stereo not drawn) [IrPSf, Ir(η^5-Cp*)Cl2PSf] | 5.67e+06 | not presumably capable of double-strand plasmid damage | 13200 | 3.62×10^3 | 2.42×10^3
CCn1cc(C(=O)O)c(=O)c2cc(F)c(N3CCN(CP(c4ccccc4)c4ccccc4)C(C)C3)c(F)c21 (stereo not drawn) [PLm] | 5.3 | – | 152 | – | –
